In patent EP4458352A1, “EICOSAPENTAENOIC ACID ESTER DERIVATIVES FOR THE TREATMENT OF OBESITY” (Technische Universität Dresden, priority 2023, dated 2024):

What was measured:
[1] = system: StAR, Cyp11a1, 3β-Hsd2, Cyp11b1, Cyp11b2; test: mRNA expression of StAR and steroidogenic enzymes upon FADS2 inhibition (qPCR); format: cell-based; settings: upon FADS2 inhibition (SC-26196)
Protocol: Adrenal glands or adrenal corteces were isolated from WT C57BL/6J mice, cleaned from the surrounding fat tissue and incubated in collagenase buffer (1.6 mg/ml collagenase type I, 1.6 mg/ml BSA) for 45 min at 37 °C, while shaking at 900 rpm. Dissociated cells were passed through 22 G needle and a 100 µm cell strainer and centrifuged at 300 × g for 5 min at 4 °C. Cells of a pool from two adrenals of each mouse were distributed in four 0.2 % gelatin-precoated wells of a 96-well plate in DMEM/F12 supplemented with 1 % FBS, 50 U/mL penicillin and 50 µg/mL streptomycin. Two hours after seeding 10 µM SC-26196 (Tocris, Wiesbaden-Nordenstadt, Germany) or same amount of carrier (DMSO) were added without changing the medium. In some experiments medium was additionally supplemented with 150 µM ARA (Sigma Aldrich, Germany) or same amount of solvent (endotoxin-free water). […]
RNA was isolated from frozen tissues with the TRI Reagent (MRC, Cincinnati, USA) after mechanical tissue disruption or from cells with the RNeasy Mini Kit (Qiagen, Düsseldorf, Germany) according to manufacturer's instructions. […] Reverse transcription was performed with the iScript cDNA Synthesis kit (Biorad, Munich, Germany) and cDNA was analyzed by qPCR using the SsoFast Eva Green Supermix (Bio-Rad, Munich, Germany), a CFX384 real-time System C1000 Thermal Cycler (Bio-Rad) and the Bio-Rad CFX Manager 3.1 software.

[2] = system: NCI-H295R cells; test: Lipidomic analysis (LC-MS/MS) of mitochondrial fractions of NCI-H295R cells treated with SC-26196; format: cell-based, Human; settings: SC-26196 10 µM, 18 h vs DMSO
Protocol: NCI-H295R cells (obtained from ATCC Cat# CRL-2128) were maintained in DMEM/F12 medium supplemented with 2.5 % Nu-Serum type I (Corning), 1 % Insulin Transferrin Selenium (ITS; Gibco), 50 U/mL penicillin and 50 µg/mL streptomycin. They were treated for 18 h with 10 µM SC-26196 or DMSO. In some experiments, NCI-H295R cells were treated or not for 48 h 66 µM EPA and in the last 24 h they were stimulated or not with forskolin (10 µM; Sigma-Aldrich).
Cells were trypsinized and pelleted by centrifugation (500xg, 5 min, 4 °C). The cells were gently resuspended in homogenization buffer (200 mM mannitol, 50 mM sucrose, 10 mM KCI, […] 25 mM HEPES, pH 7.4, 1 µM aprotinin, 10 µM leupeptin, 20 µM PMSF) and homogenized on ice with 20 strokes of tight Dounce homogenizer. The samples were then centrifuged (800xg, 10 min, 4 °C) to pellet the nuclei. The supernatant was mixed with iodixanol solution (Optiprep, Sigma-Aldrich) to a final concentration of 20 %. The samples were placed at the bottom of a tube and overlaid with 500 µl iodixanol solutions (18 %, 16 %, 14 %, 12 %, 10 %, 5 %) and finally with 500 µl of HBS (50 mM HEPES, 150 mM NaCl, pH 7.4). The samples were centrifuged in Beckman SW60Ti swing-out rotor (45,000 rpm, 5 h, 4 °C). After centrifugation fifteen 280 µl aliquots were collected from top of the tubes.
Fractions 10-12 (SDHB-positive) and 4-5 (HSL-positive) were considered as mitochondrial and lipid droplet fractions, respectively. Protein concentration was measured in the mitochondrial and lipid droplet pools with the BCA Protein Assay Kit (Thermo Fisher) and fractions were analyzed for cholesterol and CE concentrations.
Fractions containing mitochondria were combined and extracted with three volumes of ice-cold chloroform/methanol (10:1, v/v, both containing 0.1 % butylated hydroxytoluene (Merck, ≥99 %)). Samples were incubated on ice for 15 min, before the organic phase was collected after centrifugation (5 min, 5,000 × g). The aqueous phase was re-extracted with two volumes chloroform/methanol as described above. Combined organic phases were dried in vacuo. Methanol (ULC-MS grade, Biosolve B.V.) and chloroform (EMSURE ACS, ISO, Reag. Ph Eur; Supleco) were of highest purity.
Lipid extracts were dissolved in 50 µL 2-propanol (ULC/MS-CC/SFC grade, >99.95 %; Biosolve B.V.) and analyzed by LC-MS/MS. Lipids (2.5 µL loaded in positive mode, 5 µL in negative mode) were separated by reverse phase chromatography (Accucore C30 column; 150 mm × 2.1 mm 2.6 µM 150 Å, Thermo Fisher Scientific) using a Vanquish Horizon UHPLC system (Thermo Fisher Scientific) coupled on-line to a Q Exactive Plus Hybrid Quadrupole Orbitrap mass spectrometer (Thermo Fisher Scientific, Bremen, Germany) equipped with a HESI source. Column was operated at 50 °C and flow rate of 0.3 mL/min. […]

mRNA expression of StAR or steroidogenic enzymes (Cyp11a1, 3β-Hsd2, Cyp11b1, Cyp11b2) [1]: increased
Compound: N#CC(CCCN1CCN(/N=C/c2cccnc2)CC1)(c1ccccc1)c1ccccc1 [SC-26196]
abundance of PC and PE containing PUFA acyl chains in mitochondrial fractions [2]: reduced | lipids with saturated or monounsaturated acyl chains in mitochondrial fractions [2]: increased | mitochondrial lipidome (PCA) ([2]; n=3): reprogramed the mitochondrial lipidome | Cardiolipins in mitochondrial fractions ([2]; not shown): remained unaffected
